Data as given in BindingDB's records for doi:10.1016/s0960-894x(02)00385-2 (National Institute of Diabetes and Digestive and Kidney …, 2002).

Target: T1, Mycothiol S-conjugate amidase (Mycobacterium tuberculosis (strain ATCC 25618 / H37Rv), UniProt P9WJN1)
T1 sequence (P9WJN1 whole entry): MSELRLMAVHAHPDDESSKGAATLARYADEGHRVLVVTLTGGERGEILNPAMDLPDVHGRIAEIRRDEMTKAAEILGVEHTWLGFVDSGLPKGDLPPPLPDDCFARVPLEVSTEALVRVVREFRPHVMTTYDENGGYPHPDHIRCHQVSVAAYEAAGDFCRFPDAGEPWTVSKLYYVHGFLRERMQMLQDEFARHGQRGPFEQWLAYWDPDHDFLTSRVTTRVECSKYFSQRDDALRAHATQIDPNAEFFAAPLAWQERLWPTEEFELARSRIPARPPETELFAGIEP
Experiment: ChEBML_140808
Description: Inhibition of Mycothiol -S-conjugate amidase (MCA) from mycobacterium tuberculosis

Row | Structure (SMILES) | IC50 [nM]
1 | O=NC(Cc1ccc(O)c(Br)c1)C(=O)NCCSSCCNC(=O)C(Cc1ccc(O)c(Br)c1)N=O (configuration not stated) [3-(3-bromo-4-hydroxy-phenyl)-N-[2-(2-{3-(3-bromo-4-hydroxy-phenyl)-2-[hydroxyimino]-propionylamino}-ethyldisulfanyl)-ethyl]-2-[hydroxyimino]-propionamide] | 2800
2 | N=C(N)CCCCNC(=O)C(Cc1cc(Br)c(OCCCN)c(Br)c1)N=O (configuration not stated) [3-[4-(3-Amino-propoxy)-3,5-dibromo-phenyl]-N-(4-carbamimidoyl-butyl)-2-[(E)-hydroxyimino]-propionamide] | 2800
